Measurements: patent publication US8822383B2, “Germination-stimulant carbamate derivatives and process for preparation thereof” (National University Corporation KOBE UNIVERSITY, priority 2010, dated 2014)

Legend:
[1] = system: Striga (Striga hermonthica) seeds; assay: Test for Germination Stimulation Activity on Striga; assay type: in vivo; conditions: conditioned Striga hermonthica seeds, 20 μl of 10 μM solution, 30° C., counted 24 hours later; no compound: 0%
Method: (§1) First, 10 μmol of each test compound was weighed and dissolved in 2 ml of acetone. Each solution was diluted with distilled water to obtain a 10 μM solution. Next, a bottom of a petri dish was covered with a filter paper, and conditioned seeds of Striga (Striga hermonthica) were placed on the filter paper, and then 20 μl of each diluted solution of test compound was applied to the seeds. For maintaining the humidity, a wet filter paper was prepared as long as water droplets were not dripped from the filter paper, and folded into four, and then placed onto the center of the petri dish. The petri dish was sealed with Parafilm®, and then covered with aluminum foil, and then incubated at 30° C. Twenty four (24) hours later, the number of germinated seeds was counted, and then a germination rate (%) was calculated by using the following formula: Germination rate(%)=(the number of germinated seeds/the total number of seeds)×100 The test compounds and the germination rates are shown in Tables 1 and 2. When no test compound was used in this test, the germination rate was 0%.

[2] = system: Orobanche (Orobanche minor) seeds; assay: Test for Germination Stimulation Activity on Orobanche; assay type: in vivo; conditions: conditioned Orobanche minor seeds, 20 μl of 10 μM solution, 30° C., counted 4 days after; no compound: 0%
Method: as §1, with “of Orobanche (Orobanche minor)” for “of Striga (Striga hermonthica)”, “C. Four (4) days after,” for “C. Twenty four (24) hours later,”, “Tables 3” for “Tables 1”, “and 4.” for “and 2.”

Compound | Germination rate (%) [1] [%] | Germination rate (%) [2] [%]
CC1=CC(OC(=O)Nc2ccccc2)OC1=O (stereo not shown) [Compound No. 1, 4-methyl-5-oxo-2,5-dihydrofuran-2-yl phenylcarbamate] | 2.6 | 38.8
CC1=CC(OC(=O)NCc2ccccc2)OC1=O (stereo not shown) [Compound No. 2, 4-methyl-5-oxo-2,5-dihydrofuran-2-yl benzylcarbamate] | 38.1 | 61.1
CC1=CC(OC(=O)NCCc2ccccc2)OC1=O (stereo not shown) [Compound No. 3, 4-methyl-5-oxo-2,5-dihydrofuran-2-yl phenethylcarbamate] | 54.0 | 66.9
CC1=CC(OC(=O)N(C)c2ccccc2)OC1=O (stereo not shown) [Compound No. 4, 4-methyl-5-oxo-2,5-dihydrofuran-2-yl methyl(phenyl)carbamate] | 53.5 | 66.3
CC1=CC(OC(=O)N(C)Cc2ccccc2)OC1=O (stereo not shown) [Compound No. 5, 4-methyl-5-oxo-2,5-dihydrofuran-2-yl benzyl(methyl)carbamate] | 48.4 | 75.2
CC1=CC(OC(=O)N(C)CCc2ccccc2)OC1=O (stereo not shown) [Compound No. 6, 4-methyl-5-oxo-2,5-dihydrofuran-2-yl 2-phenethyl(methyl)carbamate] | 28.0 | 30.4
CC1=CC(SC(=S)N(C)c2ccccc2)OC1=O (stereo not shown) [Compound No. 7, 4-methyl-5-oxo-2,5-dihydrofuran-2-yl methyl(phenyl)dithiocarbamate] | 32.6 | 15.3
CC1=CC(SC(=O)N(C)c2ccccc2)OC1=O (stereo not shown) [Compound No. 8, 4-methyl-5-oxo-2,5-dihydrofuran-2-yl methyl(phenyl)thiolcarbamate] | 12.0 | 5.4
CC1=CC(OC(=O)NCCc2cccc(C)c2C)OC1=O (stereo not shown) [Compound No. 9, 4-methyl-5-oxo-2,5-dihydrofuran-2-yl 2-(2,3-dimethylphenyl)ethylcarbamate] | 32.0 | 54.0
CC1=CC(OC(=O)NCCc2ccc(C)c(C)c2)OC1=O (stereo not shown) [Compound No. 10, 4-methyl-5-oxo-2,5-dihydrofuran-2-yl 2-(3,4-dimethylphenyl)ethylcarbamate] | 43.0 | 48.0
CC1=CC(OC(=O)NCCc2ccc3c(c2)OCO3)OC1=O (stereo not shown) [Compound No. 11, 4-methyl-5-oxo-2,5-dihydrofuran-2-yl 2-(3,4-methylenedioxyphenyl)ethylcarbamate] | 37.0 | 47.0
